# In patent publication US9695155B2, “Herbicidal substituted pyrimidinyloxy benzene compounds” (E. I. DU PONT DE NEMOURS AND COMPANY, priority 2013, dated 2017):
# Tests used:
# [1] = tested on: large (Lg) crabgrass; experiment: Test A postemergence; format: in vivo, Digitaria sanguinalis; details: for Crabgrass, Large plant response rating: 125 g ai/ha
# In short: (§1)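 Scoring: eye-based comparison with untreated controls, 0 for no effect through 100 for complete control, at about day 10. Treatments: directed soil spray preemergence; foliar spray postemergence on 2–10 cm plants at the one- to two-leaf stage. Medium: loam soil with sand.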
# [2] = tested on: giant foxtail; experiment: Test A preemergence; format: in vivo, Setaria faberii; details: for Foxtail, Giant plant response rating (0 to 100 scale): 125 g ai/ha
# In short: as §1
# [3] = tested on: pigweed; experiment: Test A postemergence; format: in vivo, Amaranthus retroflexus; details: for Pigweed plant response rating: 125 g ai/ha
# In short: as §1
# [4] = tested on: velvetleaf; experiment: Test A preemergence; format: in vivo, Abutilon theophrasti; details: for Velvetleaf plant response rating (0 to 100 scale): 125 g ai/ha
# In short: as §1
# [5] = tested on: giant foxtail; experiment: Test A postemergence; format: in vivo, Setaria faberii; details: for Foxtail, Giant plant response rating: 125 g ai/ha
# In short: as §1
# [6] = tested on: pigweed; experiment: Test A preemergence; format: in vivo, Amaranthus retroflexus; details: for Pigweed plant response rating (0 to 100 scale): 125 g ai/ha
# In short: as §1
# [7] = tested on: corn; experiment: Test A preemergence; format: in vivo, Zea mays; details: for Corn plant response rating (0 to 100 scale): 125 g ai/ha
# In short: as §1
# [8] = tested on: morningglory; experiment: Test A preemergence; format: in vivo, Ipomoea spp.; details: for Morningglory plant response rating (0 to 100 scale): 125 g ai/ha
# In short: as §1
# [9] = tested on: large (Lg) crabgrass; experiment: Test A preemergence; format: in vivo, Digitaria sanguinalis; details: for Crabgrass, Large plant response rating (0 to 100 scale): 125 g ai/ha
# In short: as §1
# [10] = tested on: barnyardgrass; experiment: Test A preemergence; format: in vivo, Echinochloa crus-galli; details: for Barnyardgrass plant response rating (0 to 100 scale, 0 is no effect, 100 is complete control): 125 g ai/ha
# In short: as §1
# [11] = tested on: velvetleaf; experiment: Test A postemergence; format: in vivo, Abutilon theophrasti; details: for Velvetleaf plant response rating: 125 g ai/ha
# In short: as §1
# [12] = tested on: morningglory; experiment: Test A postemergence; format: in vivo, Ipomoea spp.; details: for Morningglory plant response rating: 125 g ai/ha
# In short: as §1
# [13] = tested on: wheat; experiment: Test A postemergence; format: in vivo, Triticum aestivum; details: for Wheat plant response rating: 125 g ai/ha
# In short: as §1
# [14] = tested on: barnyardgrass; experiment: Test B flooded paddy test; format: in vivo, Echinochloa crus-galli; details: Flood, 250 g ai/ha; 0 to 100 scale where 0 is no effect and 100 is complete control
# In short: (§2)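 Plants were grown to the 2-leaf stage, then pots were flooded to 3 cm above the soil and compounds were applied directly into the paddy water. That depth was held throughout, and after 13 to 15 days in the greenhouse injury was rated visually against controls on a 0–100 scale (0 no effect, 100 complete control).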
# [15] = tested on: barnyardgrass; experiment: Test A postemergence; format: in vivo, Echinochloa crus-galli; details: for Barnyardgrass plant response rating: 125 g ai/ha
# In short: as §1
# [16] = tested on: Heteranthera limosa; experiment: Test B flooded paddy test; format: in vivo; details: Flood, 250 g ai/ha; 0 to 100 scale where 0 is no effect and 100 is complete control
# In short: as §2
# [17] = tested on: sedge, umbrella; experiment: Test B flooded paddy test; format: in vivo, Cyperus difformis; details: Flood, 250 g ai/ha; 0 to 100 scale where 0 is no effect and 100 is complete control
# In short: as §2
# [18] = tested on: corn; experiment: Test A postemergence; format: in vivo, Zea mays; details: for Corn plant response rating: 125 g ai/ha
# In short: as §1
# [19] = tested on: rice; experiment: Test B flooded paddy test; format: in vivo, Oryza sativa; details: Flood, 250 g ai/ha; 0 to 100 scale where 0 is no effect and 100 is complete control
# In short: as §2
# [20] = tested on: wheat; experiment: Test A preemergence; format: in vivo, Triticum aestivum; details: for Wheat plant response rating (0 to 100 scale): 125 g ai/ha
# In short: as §1
# [21] = 1000 g ai/ha, 0 to 100 scale, 0 no effect, 100 complete control
# [22] = 1000 g ai/ha, 0 to 100 scale, 0 no effect, 100 complete control, approx. 10 days
# [23] = 0 to 100 scale where 0 is no effect and 100 is complete control
# [24] = 500 g ai/ha, 0 to 100 scale where 0 is no effect and 100 is complete control
compound,measurement,setting,value
CC(=O)Oc1cccc(Oc2ncc(Cl)cn2)c1-n1cc(Cl)cn1 [Compound 216],"Plant response rating, Crabgrass, Large",[1]; [21],40
same,"Foxtail, Giant plant response rating",[2]; [22],40
same,"Plant response rating, Pigweed",[3]; [21],100
same,Velvetleaf plant response rating,[4]; [22],30
same,"Plant response rating, Foxtail, Giant",[5]; [21],30
same,Pigweed plant response rating,[6]; [22],100
same,Corn plant response rating,[7]; [22],0
same,Morningglory plant response rating,[8]; [22],0
same,"Crabgrass, Large plant response rating",[9]; [22],70
same,Barnyardgrass plant response rating,[10]; [22],30
same,"Plant response rating, Velvetleaf",[11]; [21],100
same,"Plant response rating, Morningglory",[12]; [21],40
same,"Plant response rating, Wheat",[13]; [21],0
same,"Plant response rating, Barnyardgrass",[14],0
same,"Plant response rating, Barnyardgrass",[15]; [21],0
same,"Plant response rating, Ducksalad",[16],0
same,"Plant response rating, Sedge, Umbrella",[17],0
same,"Plant response rating, Corn",[18]; [21],0
same,"Plant response rating, Rice",[19],0
same,Wheat plant response rating,[20]; [22],0
O=Cc1cccc(Oc2ncc(Cl)cn2)c1-n1cc(I)cn1 [Compound 182],"Crabgrass, Large plant response rating",[1]; [23],0
same,"Plant response rating, Crabgrass, Large",[1]; [24],0
same,"Foxtail, Giant plant response rating (0 to 100 scale)",[2],0
same,"Foxtail, Giant plant response rating",[2]; [24],20
same,Pigweed plant response rating,[3]; [23],30
same,"Plant response rating, Pigweed",[3]; [24],90
same,Velvetleaf plant response rating (0 to 100 scale),[4],0
same,Velvetleaf plant response rating,[4]; [24],0
same,"Foxtail, Giant plant response rating",[5]; [23],0
same,"Plant response rating, Foxtail, Giant",[5]; [24],0
same,Pigweed plant response rating (0 to 100 scale),[6],90
same,Pigweed plant response rating,[6]; [24],100
same,Corn plant response rating (0 to 100 scale),[7],0
same,Corn plant response rating,[7]; [24],0
same,Morningglory plant response rating (0 to 100 scale),[8],0
same,Morningglory plant response rating,[8]; [24],0
same,"Crabgrass, Large plant response rating (0 to 100 scale)",[9],0
same,"Crabgrass, Large plant response rating",[9]; [24],30
same,"Barnyardgrass plant response rating (0 to 100 scale, 0 is no effect, 100 is complete control)",[10],0
same,Barnyardgrass plant response rating,[10]; [24],20
same,Velvetleaf plant response rating,[11]; [23],30
same,"Plant response rating, Velvetleaf",[11]; [24],30
same,Morningglory plant response rating,[12]; [23],0
same,"Plant response rating, Morningglory",[12]; [24],0
same,Wheat plant response rating,[13]; [23],0
same,"Plant response rating, Wheat",[13]; [24],0
same,"Plant response rating, Barnyardgrass",[14],0
same,Barnyardgrass plant response rating,[15]; [23],0
same,"Plant response rating, Barnyardgrass",[15]; [24],0
same,"Plant response rating, Ducksalad",[16],0
same,"Plant response rating, Sedge, Umbrella",[17],0
same,Corn plant response rating,[18]; [23],0
same,"Plant response rating, Corn",[18]; [24],0
same,"Plant response rating, Rice",[19],0
same,Wheat plant response rating (0 to 100 scale),[20],0
same,Wheat plant response rating,[20]; [24],0
O=Cc1cccc(Oc2ncc(Br)cn2)c1-n1cc(Br)cn1 [Compound 230],"Crabgrass, Large plant response rating",[1]; [23],0
same,"Plant response rating, Crabgrass, Large",[1]; [24],10
same,"Foxtail, Giant plant response rating (0 to 100 scale)",[2],0
same,"Foxtail, Giant plant response rating",[2]; [24],0
same,Pigweed plant response rating,[3]; [23],30
same,"Plant response rating, Pigweed",[3]; [24],60
same,Velvetleaf plant response rating (0 to 100 scale),[4],0
same,Velvetleaf plant response rating,[4]; [24],0
same,"Foxtail, Giant plant response rating",[5]; [23],0
same,"Plant response rating, Foxtail, Giant",[5]; [24],20
same,Pigweed plant response rating (0 to 100 scale),[6],0
same,Pigweed plant response rating,[6]; [24],70
same,Corn plant response rating (0 to 100 scale),[7],0
same,Corn plant response rating,[7]; [24],0
same,Morningglory plant response rating (0 to 100 scale),[8],0
same,Morningglory plant response rating,[8]; [24],0
same,"Crabgrass, Large plant response rating (0 to 100 scale)",[9],0
same,"Crabgrass, Large plant response rating",[9]; [24],0
same,"Barnyardgrass plant response rating (0 to 100 scale, 0 is no effect, 100 is complete control)",[10],0
same,Barnyardgrass plant response rating,[10]; [24],0
same,Velvetleaf plant response rating,[11]; [23],0
same,"Plant response rating, Velvetleaf",[11]; [24],30
same,Morningglory plant response rating,[12]; [23],0
same,"Plant response rating, Morningglory",[12]; [24],0
same,Wheat plant response rating,[13]; [23],0
same,"Plant response rating, Wheat",[13]; [24],0
same,"Plant response rating, Barnyardgrass",[14],20
same,Barnyardgrass plant response rating,[15]; [23],0
same,"Plant response rating, Barnyardgrass",[15]; [24],20
same,"Plant response rating, Ducksalad",[16],20
same,"Plant response rating, Sedge, Umbrella",[17],50
same,Corn plant response rating,[18]; [23],0
same,"Plant response rating, Corn",[18]; [24],0
same,"Plant response rating, Rice",[19],35
same,Wheat plant response rating (0 to 100 scale),[20],0
same,Wheat plant response rating,[20]; [24],0
